Read-outs that look alike come from different tables or passages of the source.
How the values were obtained:
Assay type in all cases: in vivo
Male, CD-1 mice = assay: Maximal Electroshock Assay (mouse); details: for ED50: oral pretreatment, range in parentheses
Description: Male, CD-1 mice (20-30g body weight) were orally pretreated with test compound or vehicle control, and either at 1h or 4h post dose a maximal electroshock (45mA amplitude, 0.2s duration, 60Hz) was applied by corneal electrodes. Protection was defined by the absence of a tonic extensor seizure in the animal within 20s of application of the electrical stimulus, which typically occurred in all vehicle pretreated animals. Animals received only one electroshock and so separate animals were used for the 1h and 4h timepoints. All drugs were administered in multiple doses.

[1] = system: Male, Sprague-Dawley rats; assay: Maximal Electroshock Assay (rat); details: for ED50: oral pretreatment, range in parentheses
Description: Male, Sprague-Dawley rats (approx. 100g body weight) were prescreened for tonic seizure susceptibility prior to drug testing. […] Protection was defined by the absence of a tonic extensor seizure in the animal within 20s of application of the electrical stimulus, which typically occurred in all vehicle pretreated animals. Animals received only one electroshock on the drug test day and so separate animals were used for the 0.5h and 4h timepoints. All drugs were administered in multiple doses.

rats = assay: Persistent Inflammatory Pain (Formalin Model); details: Rattus norvegicus, formalin test, 30 min pretreatment; for inhibition at 30 mg/kg: ip, i.p.; for inhibition at 60 mg/kg: po, p.o.
Description: The formalin test is a chemically-induced tonic pain model in which injection of formalin into a hind paw elicits a biphasic nociceptive behavior. The second phase of formalin response is predominantly due to a central sensitization phenomenon. Most clinically used drugs against neuropathic pain arc active on this second phase of formalin response. Formalin test is accepted as a valid model of persistent clinical pain.
The test was done by pretreating the rats with the test compound and 30 min later (pretreatment time), 50 µl of 2.5% formalin was injected into the right hind paw of the animal. The number of paw licking and flinching episodes were scored for 60 min post-formalin injection.
The compounds were administered either intraperitoneally (30 mg/kg) or orally (60 mg/kg).

SNI rats [2] = assay: Spared Nerve Injury (SNI) model, mechanical allodynia (Dynamic Plantar Aesthesiometer); details: for withdrawal threshold, Post Admin 30 min / withdrawal threshold, Post Admin 60 min / withdrawal threshold, Post Admin 180 min: *** P<0.001 vs Pre-Admin.; for withdrawal threshold, Pre-Admin. 0 min: baseline before administration
Description: (§1) The compounds were tested for their efficacy in reducing mechanical allodynia and cold allodynia in the spared nerve injury (SNI) model of chronic neuropathic pain. In this model, the left sciatic nerve of the rat is exposed under anesthesia. Two of the branches of the sciatic nerve viz. the common peroneal and tibial nerve are ligated and sectioned. The third branch (sural nerve) is left intact. The animals were allowed a post-operative recovery period of 7 days before they were subjected to any test.
The presence of mechanical allodynia was assessed using the Dynamic Plantar Aesthesiometer (Ugo Basile, Italy) which is a modified version of the Von Frey Hair test. In this, a test filament is positioned below the animal's hind paw and the unit is activated which causes the filament to move up and touch the plantar surface of the hind paw. Increasing force is applied to the paw via the filament. […] The cut-off force is set at 50 g. The tests were done on both the non-injured (control) and the injured (SNI) paw.
Testing of compounds was done after 21 days post-operatively. After initial basal readings were taken, the test compound or the vehicle was administered (10 ml/kg) either intraperitoneally (30 mg/kg) or orally (60 mg/kg). The readings were taken again 30, 60 and 180 min after the compound/vehicle administration.

SNI rats [3] = assay: Spared Nerve Injury (SNI) model, cold allodynia (acetone test); details: for duration (s) of nociceptive response, Post Admin 30 min: *** P<0.001 vs Pre-Admin.; for duration (s) of nociceptive response, Pre-Admin. 0 min: baseline before administration
Description: as §1
Cold allodynia was assessed by using the acetone test. In this model, 25 µl of acetone is sprayed on to the plantar surface of the hind paw. Evaporation of acetone causes cooling of the skin. The cold stimulus sets up nociceptive responses from the injured paw as evidenced by paw lifting, paw licking and grooming. The duration of the nociceptive responses is noted.
Testing of compounds was done after 21 days post-operatively. After initial basal readings were taken, the test compound or the vehicle was administered (10 ml/kg) either intraperitoneally (30 mg/kg) or orally (60 mg/kg). The readings were taken 30 min after the administration.

FCA-treated rats [4] = assay: Freund's Complete Adjuvant (FCA) model, mechanical allodynia (modified Randall-Selitto method); details: p.o.
Description: (§2) Administration of FCA to the hind paw of an animal induces the formation of a localized edema and has been widely used as a model of chronic inflammatory pain. 100 µl of FCA is injected subcutaneously into the dorsal aspect of the left hind paw of the rats. The edema appears within 2 h reaches a peak by 6h and lasts for about 7 days. The effects of compounds on mechanical allodynia and paw volume were studied 2 days after FCA administration.
The effect of the compounds in alleviating mechanical allodynia was assessed in the FCA-treated rats using the modified Randall-Selitto method (Analgesy-Meter, Ugo Basile, Italy). The animal's paw is placed on a small plinth under a cone-shaped pusher. Increasing force is applied to the paw by depressing a pedal until vocalization or withdrawal of the paw occurs. The minimum force required to elicit this vocalization/withdrawal is the paw pressure threshold. The cut-off was set at 150 g.
After the initial basal (control) readings were taken, the test compound (60 mg/kg)/vehicle was administered orally in a volume of 10 ml/kg. The paw pressure thresholds were measured 30, 60 and 180 min post administration. […] Some of the compounds were effective even at 60 and 180 min post administration.

FCA-treated rats [5] = assay: Freund's Complete Adjuvant (FCA) model, paw edema/volume (plethysmometer); details: p.o.
Description: as §2
The edema/volume of the paw is a measure of inflammation induced by FCA. This was measured by using a plethysmometer (Ugo Basile, Italy). In this, the paw of the rat is immersed in a reservoir of water and the volume of water displaced indicates the paw volume.
After the initial basal (control) readings were taken, the test compound (60 mg/kg)/vehicle was administered orally in a volume of 10 ml/kg.

[6] = read-out: MES oral ED50 4h, mouse, electroshock 4h post dose
[7] = read-out: MES oral ED50 0.5h, rat, electroshock 0.5h post dose
[8] = read-out: MES oral ED50 4h, rat, electroshock 4h post dose
[9] = group later given 30 mg/kg, i.p.
[10] = group later given 60 mg/kg, p.o.
[11] = 60 mg/kg, ** P<0.01, *** P<0.001 vs Pre-Admin.
[12] = group later given 60 mg/kg, baseline before administration

Structure (SMILES): CC(=O)N[C@H](COC(F)F)C(=O)NCc1ccc(Cl)cc1 [Compound 20]
- duration of action (Male, CD-1 mice; mouse MES, judged by similar potency at 1h and 4h pretreatment timepoints): longer than Lacosamide
- Ratio ED50 4h vs. 1h (Male, CD-1 mice; mouse, oral): 2.1
- shift in ED50 for 1 vs. 4h (Male, CD-1 mice; mouse, oral): 1 to 3.5 fold
- ED50 (Male, CD-1 mice; mouse, electroshock 1h post dose, blockade of tonic extensor seizure, read-out: MES oral ED50 1h): 8.7 mg/kg
- ED50 (Male, CD-1 mice; [6]): 17.9 mg/kg
- duration of action ([1]; rat MES, judged by similar potency at 0.5h and 4h pretreatment timepoints): longer than Lacosamide
- Ratio ED50 4h vs. 0.5h ([1]; rat, oral): 1.2
- shift in ED50 for 0.5 vs. 4h ([1]; rat, oral): 1 to 1.4 fold
- ED50 [1, 7]: 1.7 mg/kg
- ED50 [1, 8]: 2 mg/kg
- inhibition at 30 mg/kg (rats; *** P<0.001, read-out: %Inhibition Phase I): 75.3 ± 9.3%
- inhibition at 30 mg/kg (rats; *** P<0.001, read-out: %Inhibition Phase II): 82.3 ± 9.7%
- inhibition at 60 mg/kg (rats; ** P<0.01, *** P<0.001, read-out: %Inhibition Phase II): 57.6 ± 7%
- inhibition at 60 mg/kg (rats; read-out: %Inhibition Phase I): 9.6 ± 8.1%
- withdrawal threshold, Post Admin 30 min (SNI rats [2]; 30 mg/kg, i.p.): 24.9 ± 4.4*** g
- withdrawal threshold, Post Admin 60 min (SNI rats [2]; 30 mg/kg, i.p.): 23.3 ± 3.2*** g
- withdrawal threshold, Post Admin 180 min (SNI rats [2]; 30 mg/kg, i.p.): 26.3 ± 2.5*** g
- withdrawal threshold, Post Admin 30 min (SNI rats [2]; 60 mg/kg, p.o.): 19.3 ± 1.8*** g
- withdrawal threshold, Post Admin 60 min (SNI rats [2]; 60 mg/kg, p.o.): 20.3 ± 1.6*** g
- withdrawal threshold, Post Admin 180 min (SNI rats [2]; 60 mg/kg, p.o.): 14.7 ± 0.9*** g
- withdrawal threshold, Pre-Admin. 0 min (SNI rats [2]; [9]): 12.4 ± 1.3 g
- withdrawal threshold, Pre-Admin. 0 min (SNI rats [2]; [10]): 7.5 ± 0.5 g
- duration (s) of nociceptive response, Post Admin 30 min (SNI rats [3]; 30 mg/kg, i.p.): 3.4 ± 2.1*** s
- duration (s) of nociceptive response, Post Admin 30 min (SNI rats [3]; 60 mg/kg, p.o.): 16.6 ± 6.3*** s
- duration (s) of nociceptive response, Pre-Admin. 0 min (SNI rats [3]; [9]): 45.6 ± 6.9 s
- duration (s) of nociceptive response, Pre-Admin. 0 min (SNI rats [3]; [10]): 33.3 ± 4.3 s
- paw withdrawal threshold (g), Post Admin 30 min (FCA-treated rats [4]; [11]): 67.1 ± 9.9*** g
- paw withdrawal threshold (g), Post Admin 60 min (FCA-treated rats [4]; [11]): 60.4 ± 5.8*** g
- paw withdrawal threshold (g), Post Admin 180 min (FCA-treated rats [4]; [11]): 64.2 ± 5.6*** g
- paw withdrawal threshold (g), Pre-Admin. 0 min (FCA-treated rats [4]; [12]): 23.3 ± 2.1 g
- paw volume (ml), Post Admin 30 min (FCA-treated rats [5]; 60 mg/kg): 2.3 ± 0.1 mL
- paw volume (ml), Post Admin 60 min (FCA-treated rats [5]; 60 mg/kg): 2.3 ± 0.1 mL
- paw volume (ml), Pre-Admin. 0 min (FCA-treated rats [5]; [12]): 2.3 ± 0.1 mL

Structure (SMILES): COC[C@@H](NC(C)=O)C(=O)NCc1ccccc1 [Lacosamide, R-2-acetamido-N-benzyl-3-methoxy-propanamide, reference compound]
- ED50 (Male, CD-1 mice; [6]): 32 mg/kg
- ED50 [1, 7]: 1.8 mg/kg
- ED50 [1, 8]: 8.3 mg/kg
